Data taken from patent publication US20230348454A1, “COMPOUNDS AS MODULATORS OF BIS-PHOSPHOGLYCERATE MUTASE FOR THE TREATMENT OF SICKLE CELL DISEASE” (Genzyme Corporation, priority 2020, published 2023).

target: T1, hBPGM (Homo sapiens, UniProt P07738); experiment: BPGM synthase assay; format: biochemical; conditions: Table 6; read-out: huBPGM: synthase Enzyme IC50
T1 sequence (P07738 1-259): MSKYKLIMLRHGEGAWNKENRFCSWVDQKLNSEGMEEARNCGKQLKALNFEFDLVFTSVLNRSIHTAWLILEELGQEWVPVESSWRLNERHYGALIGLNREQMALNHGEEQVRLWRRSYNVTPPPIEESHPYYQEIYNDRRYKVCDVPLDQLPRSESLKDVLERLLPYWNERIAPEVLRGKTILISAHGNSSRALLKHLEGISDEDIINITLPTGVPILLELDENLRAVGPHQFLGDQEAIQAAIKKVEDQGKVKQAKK
Protocol: The following materials were used in this assay: deionized water; Bisphosphoglycerate mutase (BPGM; Standard Buffer: 50 mM Tris, 0.01% Tween 20, pH 7.4); BPGM Reaction Buffer (50 mM Tris, 0.01% Tween 20, 3.23 mM KH2PO4, pH 7.4); dithiothreitol (DTT; Stock solution: 100 mM in Standard Buffer); 384-Well Black Assay Plate (Corning, P/N 3575); DMSO; BPGM Stock Solution (500 nM in BPGM Standard Buffer); Glyceraldehyde 3-phosphate dehydrogenase (GAPDH; Stock Solution: 40 U/mL in 20 mM Tris-HCL Buffer with 20% Glycerol, 1 mM EDTA, 1 mM DTT); Glyceraldehyde 3-phosphate (GAP; Stock Solution: 20 mM in BPGM Standard Buffer); 3-PG Stock Solution (500 μM in BPGM Standard Buffer); Nicotinamide adenine dinucleotide (NAD; Stock Solution: 50 mM in BPGM Standard Buffer); Koningic Acid (1 mM Stock in DMSO); Resazurin Stock Solution (10 mM in DMSO); Diaphorase Stock Solution (40 U/mL in BPGM Standard Buffer); DTT Reaction Buffer (1 mM DTT in BPGM Reaction Buffer); Enzyme Solution (5 nM BPGM, 0.4 U/mL GAPDH in DTT Reaction Buffer); GAPDH Solution (0.4 U/mL GAPDH in DTT Reaction Buffer); Substrate Solution (2 mM NAD, 20 μM 3PG, 800 μM GAP in DTT Reaction Buffer); and Resazurin Solution (5 U/mL Diaphorase, 500 μM Resazurin in BPGM Standard Buffer).
To the assay plate was added Enzyme Solution (20 uL) to columns 2-22 and 24 of the assay plate. To columns 1 and 23 was added GAPDH Solution (20 uL). A separate compound plate was prepared at the desired concentrations and all wells were normalized with 5% DMSO. The compound plate was incubated for 30 minutes at RT. Next, the substrate solution (20 μL) was dispensed to all reaction wells and the plate was incubated for 60 minutes at RT. Koningic acid (1 μL) was added and the plate was incubated for 10 minutes at RT. During this time period, the NADH fluorescence was read at ex: 360/em: 460. Next, Resazurin Solution (10 μL) was added to all reaction wells and the plate was incubated for 30 minutes at RT. The resorufin fluorescence was then read at ex:544/em:590.

Row | Compound | IC50 [nM]
1 | Cc1nc(C(=O)NC2CCC(O)CC2)sc1-c1cccc(-c2cc(F)c3[nH]nnc3c2F)n1 (stereo not drawn) [Example 217] | 120
2 | Cc1nc(COc2ccccn2)sc1-c1cccc(-c2cc(F)c3nn[nH]c3c2F)n1 [Example 110] | 160
3 | Cc1nc(COc2ccccn2)sc1-c1cccc(-c2cc(O)c(C#N)c(F)c2)n1 [Example 120] | 1500
4 | Cc1nc(COc2ncccn2)sc1-c1ccnc(-c2cc(F)c(O)c(C#N)c2)c1 [Example 58] | 1900
5 | Cc1nc(COc2nccc(C(=O)O)n2)sc1-c1cccc(-c2cc(F)c3nn[nH]c3c2)n1 [Example 118] | 28
6 | COCC1CCCN1C(=O)OCc1nc(C)c(-c2cccc(-c3cc(F)c4nn[nH]c4c3F)n2)s1 (stereo not drawn) [Example 40] | 44
7 | Cc1nc(CNC(=O)C(C)(C)C)sc1-c1csc(-c2cc(F)c(O)c(F)c2F)n1 [Example 111] | 570
8 | Cc1nc(COc2ccccn2)sc1-c1cccc(-c2cc(F)c(O)c(C#N)c2)n1 [Example 121] | 3300
9 | Cc1nc(CNC(=O)C(C)(C)C)sc1-c1cccc(-c2cc(F)c(O)c(F)c2F)c1 [Example 146] | 13000
10 | Cc1nc(CNc2cccnn2)sc1-c1csc(-c2cc(F)c(O)c(F)c2F)n1 [Example 89] | 280
11 | Cc1nc(COC(=O)N2CCC(O)C2)sc1-c1cccc(-c2cc(F)c(O)c(F)c2F)n1 (stereo not drawn) [Example 35] | 600
12 | Cc1nc(COC(=O)N(C)C)sc1-c1csc(-c2cc(F)c3[nH]nnc3c2)n1 [Example 109] | 160
13 | Cc1nc(COc2ccccn2)sc1-c1csc(-c2cc(F)c(F)c(O)c2F)n1 [Example 55] | 220
14 | Cc1nc(CNC(=O)C2CN(C)C2)sc1-c1csc(-c2cc(F)c(O)c(F)c2F)n1 [Example 83] | > 25000
15 | Cc1nc(COc2ncccn2)sc1-c1cccc(-c2ccc(-c3n[nH]c(=O)o3)cc2)n1 [Example 161] | > 25000
16 | Cc1nc(COc2ncccn2)sc1-c1cccc(-c2ccc3oc(=O)[nH]c3c2)n1 [Example 212] | 2600
17 | Cc1nc(COCC(C)(C)O)sc1-c1nc(-c2cc(F)c3nn[nH]c3c2)cs1 [Example 226] | 82
18 | Cc1nc(Cc2ccccn2)sc1-c1cccc(-c2ccc(C(=O)NS(C)(=O)=O)cc2)c1 [Example 210] | 7500
19 | Cc1nc(COc2ncccn2)sc1-c1cccc(Nc2ccc3[nH]nnc3c2)n1 [Example 229] | > 25000
20 | Cc1ncsc1-c1cccc(-c2cc(F)c3[nH]nnc3c2F)n1 [Example 216] | 5400
21 | COC(=O)NCc1nc(C)c(-c2csc(-c3cnc(O)c(F)c3)n2)s1 [Example 200] | 12000
22 | Cc1nc(COC(C)(C)C)sc1-c1cccc(-c2cc(F)c3nn[nH]c3c2F)n1 [Example 235] | 130
23 | COC(=O)NCc1nc(C)c(-c2csc(-c3cc(O)c(-c4nnn[nH]4)cc3F)c2)s1 [Example 184] | 250
24 | Cc1nc(CO)sc1-c1csc(-c2cc(F)c3[nH]nnc3c2F)n1 [Example 87] | 380
25 | COC(=O)NCc1nc(C)c(-c2cccc(-c3cc(F)c4nn[nH]c4c3F)n2)s1 [Example 122] | 33
26 | Cc1nc(COCC(=O)N2CCC(O)C2)sc1-c1csc(-c2cc(F)c3[nH]nnc3c2F)n1 (stereo not drawn) [Example 78] | 1500
27 | Cc1nc(COc2ccccn2)sc1-c1cccc(-c2cc(F)c(O)c(F)c2)n1 [Example 199] | 6500
28 | Cc1nc(COc2ncccn2)sc1-c1cccc(-c2ccc3[nH]c(=O)[nH]c3c2)n1 [Example 128] | 6700
29 | Cc1nc(COc2ncccn2)sc1-c1cccc(-c2cc(F)c(O)c(C#N)c2F)n1 [Example 231] | 87
30 | COC(=O)NCc1nc(C)c(-c2csc(-c3cc(O)c(NS(C)(=O)=O)cc3F)n2)s1 [Example 183] | > 25000

Continued, values first:

Row | IC50 [nM] | Compound
31 | 27 | Cc1nc(COc2ncccn2)sc1-c1ccnc(-c2cc(F)c3nn[nH]c3c2F)n1 [Example 220]
32 | 16 | Cc1nc(COc2ncccn2)sc1-c1csc(-c2cc(F)c3[nH]nnc3c2F)n1 [Example 66]
33 | 20 | Cc1nc(COC(=O)N2CC(O)C2)sc1-c1cccc(-c2cc(F)c3nn[nH]c3c2F)n1 [Example 59]
34 | 740 | Cc1nc(Cc2ccccn2)sc1-c1cccc(-c2ccc(C(=O)NS(=O)(=O)c3ccccc3)cc2)c1 [Example 211]
35 | > 25000 | Cc1nc(C)c(COc2cc(F)c3nn[nH]c3c2F)s1 [Example 215]
36 | > 25000 | Cc1nc(COc2ncccn2)sc1-c1cccc(-c2ccc([N+](=O)[O-])c(F)c2)n1 [Example 134]
37 | 21 | COC(C)(C)COCc1nc(C)c(-c2cccc(-c3cc(F)c4nn[nH]c4c3F)n2)s1 [Example 227]
38 | 6300 | Cc1nc(COCC(=O)N2CCC(O)C2)sc1-c1csc(-c2cc(F)c(O)c(F)c2F)n1 (stereo not drawn) [Example 124]
39 | 14000 | Cc1nc(CNC(=O)N2CCN(C)CC2)sc1-c1csc(-c2cc(F)c(O)c(F)c2F)n1 [Example 108]
40 | 8100 | Cc1nc(COc2ncccn2)sc1-c1cccc(-c2ccc3c(c2)C(=O)NC3=O)n1 [Example 132]
41 | 74 | Cc1nc(COC(C)C(=O)N(C)C)sc1-c1csc(-c2cc(F)c3[nH]nnc3c2F)n1 (stereo not drawn) [Example 50]
42 | 4100 | Cc1nc(C)c(-c2ccn(-c3cc(F)c4[nH]nnc4c3F)n2)s1 [Example 42]
43 | 49 | Cc1nc(COCC2(O)CC2)sc1-c1cccc(-c2cc(F)c3nn[nH]c3c2F)n1 [Example 238]
44 | 210 | Cc1nc(CN(C)CC(C)(C)O)sc1-c1cccc(-c2cc(F)c3nn[nH]c3c2F)n1 [Example 225]
45 | 4400 | Cc1nc(COc2ncccn2)sc1-c1cccc(-c2cc(F)c(O)c(F)c2C)n1 [Example 133]
46 | 250 | Cc1nc(COc2ncccn2)sc1-c1ccnc(-c2cc(O)c(C#N)c(F)c2)c1 [Example 24]
47 | 1300 | Cc1nc(COC(=O)N(C)CCN(C)C)sc1-c1cccc(-c2cc(F)c(O)c(F)c2F)n1 [Example 36]
48 | 6500 | Cc1nc(CO)sc1-c1csc(-c2cc(F)c(O)c(F)c2F)n1 [Example 116]

Row | IC50 [nM] | Compound
49 | 140 | Cc1nc(C)c(-c2csc(-c3cc(F)c4[nH]nnc4c3F)n2)s1 [Example 86]
50 | 24 | Cc1nc(COc2cccnn2)sc1-c1cccc(-c2cc(F)c3nn[nH]c3c2F)n1 [Example 88]
51 | 3300 | Cc1nc(C)c(-c2cccc(-c3ccc(C(=O)NS(=O)(=O)c4ccccc4)cc3)n2)s1 [Example 209]
52 | 79 | Cc1nc(COc2ncccn2)sc1-c1ccnc(-c2cc(F)c(O)c(C#N)c2)n1 [Example 69]
53 | 21 | Cc1nc(COC(=O)N2CCC(O)C2)sc1-c1cccc(-c2cc(F)c3nn[nH]c3c2F)n1 (stereo not drawn) [Example 85]
54 | 330 | Cc1nc(CNC(=O)c2ccn(C)n2)sc1-c1csc(-c2cc(F)c(O)c(F)c2F)n1 [Example 106]
55 | 1300 | Cc1nc(COc2cccnn2)sc1-c1nc(-c2cc(F)c(O)c(F)c2F)cs1 [Example 77]
56 | 41 | COC1CCN(C(=O)OCc2nc(C)c(-c3cccc(-c4cc(F)c5nn[nH]c5c4F)n3)s2)C1 (stereo not drawn) [Example 39]
57 | 31 | Cc1nc(COCC(=O)N(C)C)sc1-c1nc(-c2cc(F)c3nn[nH]c3c2F)cs1 [Example 48]
58 | > 25000 | Cc1nc(COc2ncccn2)sc1-c1cccc(-c2nnn[nH]2)n1 [Example 73]
59 | 30 | Cc1nc(COCC(C)(C)O)sc1-c1nc(-c2cc(F)c3nn[nH]c3c2F)cs1 [Example 224]
60 | 390 | Cc1nc(CN(C)C)sc1-c1cccc(-c2cc(F)c3nn[nH]c3c2F)n1 [Example 52]
61 | 2800 | Cc1nc(CNC(=O)N2CCC(O)C2)sc1-c1csc(-c2cc(F)c3[nH]nnc3c2F)n1 (stereo not drawn) [Example 80]
62 | > 25000 | Cc1nc(-c2cccc(-c3sc(COc4ncccn4)nc3C)n2)nnc1O [Example 230]
63 | 91 | CC(=O)NCc1nc(C)c(-c2cccc(-c3cc(F)c4nn[nH]c4c3F)n2)s1 [Example 54]
64 | 25 | Cc1nc(COC(=O)N(C)C)sc1-c1nc(-c2cc(F)c3nn[nH]c3c2F)cs1 [Example 44]
65 | 890 | Cc1nc(CNCC(=O)N(C)C)sc1-c1cccc(-c2cc(F)c3nn[nH]c3c2F)n1 [Example 53]
66 | 650 | Cc1nc(CNC(=O)N(C)C)sc1-c1csc(-c2cc(F)c(O)c(F)c2F)n1 [Example 112]
